Where a name gives a salt, the structure may show the parent alone.
Legend:
[1] = biological target: cephalosporinase from P. aeruginosa (Pseudomonas aeruginosa, UniProt P24735); assay: β-Lactamase inhibitory activity, spectrophotometric rate assay at 490 nm with nitrocefin as substrate; format: biochemical
Protocol: The inhibitory activities of present compounds (β-lactamase inhibitors) against cephalosporinase from P. aeruginosa was measured by spectrophotometric rate assay using 490 nm and using nitrocefin as a substrate (J. Antimicrob. Chemother., vol. 28, pp 775-776, 1991).

β-lactamase = settings: suggested by several publications; cited from earlier work
M. morganii 36014 = assay: MIC of ceftazidime, microbroth dilution; format: cell-based; settings: Morganella morganii, 36014, 18 h, read-out: MIC of ceftazidime alone
Protocol: (§1) […]. After incubation in Mueller-Hinton Broth (Difco) at 37° C. for 18 h, the bacterial suspension was diluted and about 10^5 CFU/ml was applied to the drug-containing Mueller-Hinton Broth in each well of 96 well plate. The MICs were recorded after 18 h of incubation at 37° C. on the lowest combinations of drug that inhibited visible growth of bacteria.

P. aeruginosa AU-1 = assay: MIC of ceftazidime, microbroth dilution; format: cell-based; settings: Pseudomonas aeruginosa, AU1, 18 h, read-out: MIC of ceftazidime alone
Protocol: as §1

P. aeruginosa M 1405 = assay: MIC of ceftazidime, microbroth dilution; format: cell-based; settings: Pseudomonas aeruginosa, M1405, 18 h, read-out: MIC of ceftazidime alone
Protocol: as §1

P. aeruginosa 46012 = assay: MIC of ceftazidime, microbroth dilution; format: cell-based; settings: Pseudomonas aeruginosa, 46012, 18 h, read-out: MIC of ceftazidime alone
Protocol: as §1

C. freundii 44032 = assay: MIC of ceftazidime, microbroth dilution; format: cell-based; settings: Citrobacter freundii, 44032, 18 h, read-out: MIC of ceftazidime alone
Protocol: as §1

C. freundii CT-76 = assay: MIC of ceftazidime, microbroth dilution; format: cell-based; settings: Citrobacter freundii, CT76, 18 h, read-out: MIC of ceftazidime alone
Protocol: as §1

M. morganii 36030 = assay: MIC of ceftazidime, microbroth dilution; format: cell-based; settings: Morganella morganii, 36030, 18 h, read-out: MIC of ceftazidime alone
Protocol: as §1

P. aeruginosa L46004 = assay: MIC of ceftazidime, microbroth dilution; format: cell-based; settings: Pseudomonas aeruginosa, L46004, 18 h, read-out: MIC of ceftazidime alone
Protocol: as §1

P. aeruginosa AU-8 = assay: MIC of ceftazidime, microbroth dilution; format: cell-based; settings: Pseudomonas aeruginosa, AU8, 18 h, read-out: MIC of ceftazidime alone
Protocol: as §1

E. aerogenes S-95 = assay: MIC of ceftazidime, microbroth dilution; format: cell-based; settings: Klebsiella aerogenes, S95, 18 h, read-out: MIC of ceftazidime alone
Protocol: as §1

E. aerogenes 41006 = assay: MIC of ceftazidime, microbroth dilution; format: cell-based; settings: Klebsiella aerogenes, 41006, 18 h, read-out: MIC of ceftazidime alone
Protocol: as §1

E. cloacae P 99 = assay: microbe, parasite or virus in culture; format: cell-based; settings: Enterobacter cloacae, P99, 18 h, read-out: MIC of ceftazidime alone
Protocol: (§2) After incubation in Mueller-Hinton Broth (Difco) at 37° C. for 18 h, the bacterial suspension was diluted and about 10^5 CFU/ml was applied to the drug-containing Mueller-Hinton Broth in each well of 96 well plate. The MICs were recorded after 18 h of incubation at 37° C. on the lowest combinations of drug that inhibited visible growth of bacteria.

E. cloacae MNH-2 = assay: MIC of ceftazidime, microbroth dilution; format: cell-based; settings: Enterobacter cloacae, MNH2, 18 h, read-out: MIC of ceftazidime alone
Protocol: as §2

E. cloacae 40054 = assay: MIC of ceftazidime, microbroth dilution; format: cell-based; settings: Enterobacter cloacae, 40054, 18 h, read-out: MIC of ceftazidime alone
Protocol: as §2

P. aeruginosa AU-5 = assay: MIC of ceftazidime, microbroth dilution; format: cell-based; settings: Pseudomonas aeruginosa, AU5; ceftazidime alone, 18 h
Protocol: as §2, with “The MICs of the antibiotics (e.g., ceftazidime) alone, the MICs of ceftazidime in combination with reference compounds particularly […] (Ref. compd. I) and the MICs of the β-lactamase inhibitors (10 μg/ml) of the present invention in combination with ceftazidime were determined with the same β-lactamase producing bacteria. After” for “After”

P. aeruginosa CT-122 = assay: MIC of ceftazidime, microbroth dilution; format: cell-based; settings: Pseudomonas aeruginosa, CT122; ceftazidime alone, 18 h
Protocol: as §2, with “The MICs of the antibiotics (e.g., ceftazidime) alone, the MICs of ceftazidime in combination with reference compounds particularly […] (Ref. compd. I) and the MICs of the β-lactamase inhibitors (10 μg/ml) of the present invention in combination with ceftazidime were determined with the same β-lactamase producing bacteria. After” for “After”

P. aeruginosa CT-137 = assay: MIC of ceftazidime, microbroth dilution; format: cell-based; settings: Pseudomonas aeruginosa, CT137; ceftazidime alone, 18 h
Protocol: as §2, with “The MICs of the antibiotics (e.g., ceftazidime) alone, the MICs of ceftazidime in combination with reference compounds particularly […] (Ref. compd. I) and the MICs of the β-lactamase inhibitors (10 μg/ml) of the present invention in combination with ceftazidime were determined with the same β-lactamase producing bacteria. After” for “After”

P. aeruginosa 46017 = assay: MIC of ceftazidime, microbroth dilution; format: cell-based; settings: Pseudomonas aeruginosa, ceftazidime alone, 18 h
Protocol: as §2, with “The MICs of the antibiotics (e.g., ceftazidime) alone, the MICs of ceftazidime in combination with reference compounds particularly […] (Ref. compd. I) and the MICs of the β-lactamase inhibitors (10 μg/ml) of the present invention in combination with ceftazidime were determined with the same β-lactamase producing bacteria. After” for “After”

M. morganii 36010 = assay: MIC of ceftazidime, microbroth dilution; format: cell-based; settings: Morganella morganii, ceftazidime alone, 18 h
Protocol: as §2, with “The MICs of the antibiotics (e.g., ceftazidime) alone, the MICs of ceftazidime in combination with reference compounds particularly […] (Ref. compd. I) and the MICs of the β-lactamase inhibitors (10 μg/ml) of the present invention in combination with ceftazidime were determined with the same β-lactamase producing bacteria. After” for “After”

P. aeruginosa M2297 = assay: MIC of ceftazidime, microbroth dilution; format: cell-based; settings: Pseudomonas aeruginosa, ceftazidime alone, 18 h
Protocol: as §2, with “The MICs of the antibiotics (e.g., ceftazidime) alone, the MICs of ceftazidime in combination with reference compounds particularly […] (Ref. compd. I) and the MICs of the β-lactamase inhibitors (10 μg/ml) of the present invention in combination with ceftazidime were determined with the same β-lactamase producing bacteria. After” for “After”

P. aeruginosa 46220 DR-2 = assay: MIC of ceftazidime, microbroth dilution; format: cell-based; settings: Pseudomonas aeruginosa, 46220DR2; ceftazidime alone, 18 h
Protocol: as §2, with “The MICs of the antibiotics (e.g., ceftazidime) alone, the MICs of ceftazidime in combination with reference compounds particularly […] (Ref. compd. I) and the MICs of the β-lactamase inhibitors (10 μg/ml) of the present invention in combination with ceftazidime were determined with the same β-lactamase producing bacteria. After” for “After”

P. aeruginosa CT-144 = assay: MIC of ceftazidime, microbroth dilution; format: cell-based; settings: Pseudomonas aeruginosa, CT144; ceftazidime alone, 18 h
Protocol: as §2, with “The MICs of the antibiotics (e.g., ceftazidime) alone, the MICs of ceftazidime in combination with reference compounds particularly […] (Ref. compd. I) and the MICs of the β-lactamase inhibitors (10 μg/ml) of the present invention in combination with ceftazidime were determined with the same β-lactamase producing bacteria. After” for “After”

P. aeruginosa AU-10 = assay: MIC of ceftazidime, microbroth dilution; format: cell-based; settings: Pseudomonas aeruginosa, AU10; ceftazidime alone, 18 h
Protocol: as §2, with “The MICs of the antibiotics (e.g., ceftazidime) alone, the MICs of ceftazidime in combination with reference compounds particularly […] (Ref. compd. I) and the MICs of the β-lactamase inhibitors (10 μg/ml) of the present invention in combination with ceftazidime were determined with the same β-lactamase producing bacteria. After” for “After”

[2] = system: P. aeruginosa sp 2439 Wt.; assay: MIC of ceftazidime, microbroth dilution; format: cell-based; settings: Pseudomonas aeruginosa, SP2439WT.; ceftazidime alone, 18 h
Protocol: as §2, with “The MICs of the antibiotics (e.g., ceftazidime) alone, the MICs of ceftazidime in combination with reference compounds particularly […] (Ref. compd. I) and the MICs of the β-lactamase inhibitors (10 μg/ml) of the present invention in combination with ceftazidime were determined with the same β-lactamase producing bacteria. After” for “After”

[3] = system: P. aeruginosa PAO 303 carb-4; assay: microbe, parasite or virus in culture; format: cell-based; settings: Pseudomonas aeruginosa, PAO303CARB4, 18 h, read-out: MIC of ceftazidime alone
Protocol: as §1

[4] = system: P. aeruginosa 46220 DR-2-1; assay: microbe, parasite or virus in culture; format: cell-based; settings: Pseudomonas aeruginosa, 46220DR21, 18 h, read-out: MIC of ceftazidime alone
Protocol: as §1

Sequence of cephalosporinase from P. aeruginosa (P24735 27-397): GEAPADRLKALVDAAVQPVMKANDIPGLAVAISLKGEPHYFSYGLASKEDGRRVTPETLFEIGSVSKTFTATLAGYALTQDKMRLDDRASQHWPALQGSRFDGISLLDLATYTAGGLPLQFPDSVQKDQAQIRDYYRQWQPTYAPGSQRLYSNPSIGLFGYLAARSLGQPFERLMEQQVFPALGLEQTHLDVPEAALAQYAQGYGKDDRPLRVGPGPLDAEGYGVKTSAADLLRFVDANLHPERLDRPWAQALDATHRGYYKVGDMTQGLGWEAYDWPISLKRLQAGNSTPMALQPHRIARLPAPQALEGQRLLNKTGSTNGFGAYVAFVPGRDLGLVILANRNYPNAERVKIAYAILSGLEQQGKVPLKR

Compound: C[C@H]1[C@H](NC(=O)/C(=N/OCCN)c2cccs2)C(=O)N1S(=O)(=O)O [Compound 1]
- IC50 [1]: 0.02 µM

Compound: C[C@H]1[C@H](NC(=O)/C(=N/OCCCN)c2cccs2)C(=O)N1S(=O)(=O)O [Compound 2]
- IC50 [1]: 0.02 µM

Compound: C[C@H]1[C@H](NC(=O)/C(=N/OC(CN)CN)c2cccs2)C(=O)N1S(=O)(=O)O [Compound 3, (3S)-trans-3-[(E)-2-(2-Thienyl)-2-{1,3-diamino-prop-2-oxyimino}acetamido]-4-methyl-2-oxoazetidine-1-sulfonic acid, triflate salt]
- IC50 [1]: 0.4 µM

Compound: C[C@H]1[C@H](NC(=O)/C(=N/OCC(N)CN)c2cccs2)C(=O)N1S(=O)(=O)O (some centres unmarked) [Compound 4]
- IC50 [1]: 0.065 µM

Compound: C[C@H]1[C@H](NC(=O)/C(=N/OC[C@@H](N)CCN)c2cccs2)C(=O)N1S(=O)(=O)O [Compound 5]
- IC50 [1]: 0.1 µM

Compound: C[C@H]1[C@H](NC(=O)/C(=N/OC[C@H](N)CCN)c2cccs2)C(=O)N1S(=O)(=O)O [Compound 6]
- IC50 [1]: 0.1 µM

Compound: C[C@H]1[C@H](NC(=O)/C(=N/OCCNCCN)c2cccs2)C(=O)N1S(=O)(=O)O [Compound 7]
- IC50 [1]: 0.08 µM

Compound: C[C@H]1[C@H](NC(=O)/C(=N/OC(CN)CO)c2cccs2)C(=O)N1S(=O)(=O)O (some centres unmarked) [Compound 8]
- IC50 [1]: 0.3 µM

Compound: C[C@H]1[C@H](NC(=O)/C(=N/OCC(N)CO)c2cccs2)C(=O)N1S(=O)(=O)O (stereo partly drawn) [Compound 9, (3S)-trans-3-[(E)-2-(2-Thienyl)-2-{1-hydroxy-2-amino-prop-3-oxyimino}acetamido]-4-methyl-2-oxoazetidine-1-sulfonic acid, inner salt]
- IC50 [1]: 0.08 µM

Compound: CC(N)CO/N=C(/C(=O)N[C@@H]1C(=O)N(S(=O)(=O)O)[C@H]1C)c1cccs1 (stereo partly drawn) [Compound 10, (3S)-trans-3-[(E)-2-(2-Thienyl-2-{(2-amino)-prop-1-oxyimino}acetamido]-4-methyl-2-oxoazetidine-1-sulfonic acid, inner salt]
- IC50 [1]: 0.08 µM

Compound: CC(CN)O/N=C(/C(=O)N[C@@H]1C(=O)N(S(=O)(=O)O)[C@H]1C)c1cccs1 (some centres unmarked) [Compound 11]
- IC50 [1]: 0.2 µM

Compound: C[C@H]1[C@H](NC(=O)/C(=N/OC(CN)CNC(=N)N)c2cccs2)C(=O)N1S(=O)(=O)O (some centres unmarked) [Compound 12]
- IC50 [1]: 1.09 µM

Compound: C[C@H]1[C@H](NC(=O)/C(=N\OC(C)(C)C(=O)O)c2csc(N)n2)C(=O)N1S(=O)(=O)O [Reference Compound I, Aztreonam]
- β-lactamase inhibitory properties (β-lactamase): possesses β-lactamase inhibitory properties
- IC50 [1]: 0.13 µM

Compound: C[C@H]1[C@H](NC(=O)/C(=N/OCCN)c2csc(N)n2)C(=O)N1S(=O)(=O)O [Reference Compound II]
- IC50 [1]: 0.8 µM

Compound: CC(C)(O/N=C(\C(=O)N[C@@H]1C(=O)N2C(C(=O)[O-])=C(C[n+]3ccccc3)CS[C@H]12)c1csc(N)n1)C(=O)O [ceftazidime]
- MIC (M. morganii 36014): > 32 µg/mL
- MIC (P. aeruginosa AU-1): > 32 µg/mL
- MIC (P. aeruginosa M 1405): > 32 µg/mL
- MIC (P. aeruginosa 46012): > 32 µg/mL
- MIC (C. freundii 44032): > 32 µg/mL
- MIC (C. freundii CT-76): > 32 µg/mL
- MIC (M. morganii 36030): > 32 µg/mL
- MIC (P. aeruginosa L46004): > 32 µg/mL
- MIC (P. aeruginosa AU-8): > 32 µg/mL
- MIC (E. aerogenes S-95): > 32 µg/mL
- MIC (E. aerogenes 41006): > 32 µg/mL
- MIC (E. cloacae P 99): > 32 µg/mL
- MIC (E. cloacae MNH-2): > 32 µg/mL
- MIC (E. cloacae 40054): > 32 µg/mL
- MIC (P. aeruginosa AU-5): > 32 µg/mL
- MIC (P. aeruginosa CT-122): 16 µg/mL
- MIC (P. aeruginosa CT-137): 8 µg/mL
- MIC (P. aeruginosa 46017): > 32 µg/mL
- MIC (M. morganii 36010): > 32 µg/mL
- MIC (P. aeruginosa M2297): > 32 µg/mL
- MIC (P. aeruginosa 46220 DR-2): 16 µg/mL
- MIC (P. aeruginosa CT-144): 32 µg/mL
- MIC (P. aeruginosa AU-10): > 32 µg/mL
- MIC [2]: > 32 µg/mL
- MIC [3]: 32 µg/mL
- MIC [4]: > 32 µg/mL

From patent US5994340A, “Azetidinone derivatives as β-lactamase inhibitors” (SynPhar Laboratories, Inc., priority 1997, dated 1999)
